Measured values published in US10383894B2, “Human medicinal treatment using salt of peroxymonosulfuric acid” (LuTran Industries, Inc., priority 2010, dated 2019).

Columns and labels:
Assay type in all cases: in vivo, human
bronchitis = experiment: Treatment of persons with bronchitis with the Medicine (Examples 12-14); conditions: Example 13: prior treatment, no dose given
Description: (§1) Given below are examples of using the medicinal drug of type I/II for treating allergic rhinitis, osteoarthritis, gouty arthritis, bronchitis, hemorrhoids, urticaria, toothache, tinea pedis, acute viral nasopharyngitis, herpes simplex, dandruff, itching, bromhidrosis, and vaginitis. The formulation of the drug of type I/II used in these examples was the preferred formulation, mentioned above, in which the drug was formed with potassium hydrogen peroxymonosulfate as the active oxygen-releasing material, sodium chloride as the inorganic halide, sodium hexametaphosphate as the alkali metal phosphate, sulfamic acid, malic acid as the non-reducing organic acid, and sodium dodecylbenzene sulfonate as the surfactant at approximately the typical mass percentages mentioned above. A formulation approximating this formulation is commercially available in the product Virkon. This formulation of the drug of type I/II is referred to below as the “Medicine”. […]

gouty arthritis = experiment: Treatment of persons with gouty arthritis with the Medicine (Examples 9-11); conditions: no dose given; for patient-reported outcome of previously tried treatments: Example 11: prior treatment
Description: Given below are examples of using the medicinal drug of type I/II for treating allergic rhinitis, osteoarthritis, gouty arthritis, bronchitis, hemorrhoids, urticaria, toothache, tinea pedis, acute viral nasopharyngitis, herpes simplex, dandruff, itching, bromhidrosis, and vaginitis. The formulation of the drug of type I/II used in these examples was the preferred formulation, mentioned above, in which the drug was formed with potassium hydrogen peroxymonosulfate as the active oxygen-releasing material, sodium chloride as the inorganic halide, sodium hexametaphosphate as the alkali metal phosphate, sulfamic acid, malic acid as the non-reducing organic acid, and sodium dodecylbenzene sulfonate as the surfactant at approximately the typical mass percentages mentioned above. A formulation approximating this formulation is commercially available in the product Virkon. This formulation of the drug of type I/II is referred to below as the “Medicine”.
The Medicine for each person infected with allergic rhinitis, osteoarthritis, gouty arthritis, bronchitis, hemorrhoids, urticaria, toothache, tinea pedis, acute viral nasopharyngitis, herpes simplex, dandruff, itching, bromhidrosis, and vaginitis is provided for topical, intranasal, oral, or/and injection administration 1-12 times per day, preferably 1-8 times per day, more preferably 1-6 times per day, typically 1-4 times per day, in liquid form at a dosage of 0.00001-5%, preferably 0.001-3%, more preferably 0.1-2%, typically 0.5-1%, for a time of contact of 1 minute-12 hours, preferably 1 minute-6 hours, more preferably 1 minute-2 hours, typically 1-30 minutes . The treatment period in each in each of the following examples is normally 1-12 months, preferably 1-6 months, more preferably 1-3 months, typically 1-30 days.
A retired adult had gouty arthritis for 10 years. The […] reported that they were in excruciating pain on random days and that previously attempted treatments for the pain were unsuccessful. […]

osteoarthritis = experiment: Treatment of persons with osteoarthritis with the Medicine (Examples 6-8); conditions: Example 6: prior treatment, no dose given
Description: as §1

vaginitis = experiment: Treatment of persons with vaginitis with the Medicine (Examples 48-50); conditions: no dose given
Description: as §1

itching = experiment: Treatment of persons with itching with the Medicine (Examples 41-43); conditions: no dose given
Description: as §1

dandruff = experiment: Treatment of persons with dandruff with the Medicine (Examples 37-40); conditions: Example 37: prior treatment, (some of) these decreased the amount of dandruff
Description: Given below are examples of using the medicinal drug of type I/II for treating allergic rhinitis, osteoarthritis, gouty arthritis, bronchitis, hemorrhoids, urticaria, toothache, tinea pedis, acute viral nasopharyngitis, herpes simplex, dandruff, itching, bromhidrosis, and vaginitis. […] A formulation approximating this formulation is commercially available in the product Virkon. This formulation of the drug of type I/II is referred to below as the “Medicine”.
The Medicine was provided to […] as a 1% solution for topical administration by scrubbing the Medicine into their scalp and hair for 5 minutes and then washing their scalp and hair. The […] reported that they administered the Medicine to themself in the foregoing manner 4 times a week for 2 weeks.

[1] = test system: acute viral nasopharyngitis; experiment: Treatment of persons with acute viral nasopharyngitis with the Medicine (Examples 28-32); conditions: Example 30: prior treatment, no dose given

## COc1ccc2c3c1O[C@H]1[C@@H](O)C=C[C@H]4[C@@H](C2)N(C)CC[C@@]341 [codeine]
bronchitis
  patient-reported outcome of previously tried treatments for bronchitis: little success

## COc1cc2c(c(OC)c1OC)-c1ccc(OC)c(=O)cc1[C@@H](NC(C)=O)CC2 [colchicines, colchicine]
Gouty arthritis
  patient-reported outcome of previously tried treatments: without significant success

## N[C@H]1C(O)O[C@H](CO)[C@@H](O)[C@@H]1O (some centres unmarked) [glucosamine]
osteoarthritis
  patient-reported outcome of previously tried treatments for osteoarthritis: without effective relief

## C[C@]12CCC(=O)C=C1CC[C@@H]1[C@@H]2[C@@H](O)C[C@@]2(C)[C@H]1CC[C@]2(O)C(=O)CO [hydrocortisone]
vaginitis; Example 48: prior treatment
  patient-reported outcome of previously tried treatments for vaginitis: without significant success
vaginitis; Example 50: prior treatment
  patient-reported outcome of previously tried treatments for vaginitis: to no avail
itching; Example 42: prior treatment
  patient-reported outcome of previously tried treatments for itching: without success
itching; Example 43: prior treatment
  patient-reported outcome of previously tried treatments for itching: little success

## CC(C)Cc1ccc(C(C)C(=O)O)cc1 (centres unmarked) [ibuprofen]
Gouty arthritis; Example 10: prior treatment
  patient-reported outcome of previously tried treatment for gouty arthritis: no significant success
Gouty arthritis
  patient-reported outcome of previously tried treatments: without significant success

## CC(=O)N1CCN(c2ccc(OCC3COC(Cn4ccnc4)(c4ccc(Cl)cc4Cl)O3)cc2)CC1 (centres unmarked) [ketoconazole]
dandruff
  patient-reported outcome of previously tried treatments for dandruff: dandruff was still visible on their scalp

## CC(=O)Nc1ccc(O)cc1 [paracetamol]
[1]
  patient-reported outcome of previously tried treatments for acute viral nasopharyngitis: little success

## CN[C@@H](C)[C@@H](O)c1ccccc1 [pseudoephedrine]
[1]
  patient-reported outcome of previously tried treatments for acute viral nasopharyngitis: little success

## S=[Se]=S [selenium sulfide]
dandruff
  patient-reported outcome of previously tried treatments for dandruff: dandruff was still visible on their scalp

## zinc pyrithione
dandruff
  patient-reported outcome of previously tried treatments for dandruff: dandruff was still visible on their scalp
